The record followed here is patent US11427548B2 (Arvinas Operations, Inc., priority 2015, dated 2022).

This experiment concerns the target T1, Androgen Receptor (Homo sapiens, UniProt P10275).
T1 construct: endogenous in cells; host or cells: VCaP cells
T1 sequence (P10275 1-920): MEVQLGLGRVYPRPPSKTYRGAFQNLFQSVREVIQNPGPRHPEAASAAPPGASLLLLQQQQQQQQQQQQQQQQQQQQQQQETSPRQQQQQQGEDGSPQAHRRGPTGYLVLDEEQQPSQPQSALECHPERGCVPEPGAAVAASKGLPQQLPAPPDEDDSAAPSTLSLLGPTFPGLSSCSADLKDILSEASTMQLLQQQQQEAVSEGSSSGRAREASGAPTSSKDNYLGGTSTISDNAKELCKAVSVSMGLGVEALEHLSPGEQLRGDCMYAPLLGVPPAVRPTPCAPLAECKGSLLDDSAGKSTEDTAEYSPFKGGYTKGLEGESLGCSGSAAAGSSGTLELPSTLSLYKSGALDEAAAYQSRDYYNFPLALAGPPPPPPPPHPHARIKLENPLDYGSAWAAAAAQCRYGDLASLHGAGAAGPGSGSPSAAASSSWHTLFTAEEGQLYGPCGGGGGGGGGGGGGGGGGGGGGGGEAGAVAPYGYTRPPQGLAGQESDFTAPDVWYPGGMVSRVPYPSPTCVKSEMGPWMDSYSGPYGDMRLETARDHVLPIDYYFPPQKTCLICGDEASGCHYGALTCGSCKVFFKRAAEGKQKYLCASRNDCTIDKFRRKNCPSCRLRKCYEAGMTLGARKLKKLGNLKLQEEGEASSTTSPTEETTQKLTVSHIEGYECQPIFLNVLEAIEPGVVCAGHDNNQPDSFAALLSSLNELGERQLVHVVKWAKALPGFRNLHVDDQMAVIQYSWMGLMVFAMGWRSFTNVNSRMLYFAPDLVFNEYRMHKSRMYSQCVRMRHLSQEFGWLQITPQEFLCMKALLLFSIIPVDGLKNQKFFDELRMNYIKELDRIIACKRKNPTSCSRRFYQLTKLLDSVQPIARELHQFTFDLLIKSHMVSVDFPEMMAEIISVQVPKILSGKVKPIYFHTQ
Put plainly: Androgen Receptor ELISA assay (PathScan AR ELISA) in VCaP cells: AR degradation, Dmax and DC50. It is filed as cell-based. The procedure, abridged: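 VCaP cells in phenol red-free RPMI with 5% charcoal-stripped FBS were grown at least 3 days, then given compound as 7 half-log doses in 0.1% DMSO with 0.1 nM R1881 for 24 h. Lysates went into a sandwich AR ELISA with TMB read at 450 nm.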

Where [1] appears, read: read-out: VCaP DC50; VCaP cells; Table 36.
Setting [2] is: VCaP cells; Table 36; read-out: VCaP DC50.
[3] abbreviates: VCaP, VCaP cells; Table 36; read-out: VCaP Dmax (%).
Setting [4] is: VCaP, read-out: VCaP Dmax (%), VCaP cells; Table 36.

Read-outs that look alike come from different tables or passages of the source.

For the molecule `Cc1nccn1-c1ccc(C(C)NC(=O)C2CC(O)CN2C(=O)C(C(C)C)n2cc(-c3ccc(OC4CCN(c5ccc(N6C(=S)N(c7ccc(C#N)c(C(F)(F)F)c7)C(=O)C6(C)C)cn5)CC4)nc3)cn2)cc1` (stereo not drawn) [Example 631, 1-(2-(4-(6-((1-(5-(3-(4-cyano-3-(trifluoromethyl)phenyl)-5,5-dimethyl-4-oxo-2-thioxoimidazolidin-1-yl)pyridin-2-yl)piperidin-4-yl)oxy)pyridin-3-yl)-1H-pyrazol-1-yl)-3-methylbutanoyl)-4-hydroxy-N-(1-(4-(2-methyl-1H-imidazol-1-yl)phenyl)ethyl)pyrrolidine-2-carboxamide], the Dmax (VCaP, read-out: VCaP Dmax (%)) is below 25%. The DC50 under setting [1] is above 501 nM.
As to `C#CCCC(=O)OC(CCOCCCOCC(=O)N[C@H](C(=O)N1C[C@H](O)C[C@H]1C(=O)N[C@@H](C)c1ccc(-c2scnc2C)cc1)C(C)(C)C)CCOc1ccc(N2C(=S)N(c3ccc(C#N)c(C(F)(F)F)c3)C(=O)C2(C)C)cc1` (stereo partly drawn) [Example 632, 1-(4-(3-(4-cyano-3-(trifluoromethyl)phenyl)-5,5-dimethyl-4-oxo-2-thioxoimidazolidin-1-yl)phenoxy)-5-(3-(2-(((S)-1-((2S,4R)-4-hydroxy-2-(((S)-1-(4-(4-mehtylthiazol-5-yl)phenyl)ethyl)carbam-oyl)pyrrolidin-1-yl)-3,3-dimethyl-1-oxobutan-2-yl)amino)-2-oxoethoxy)propoxy)pen-tan-3-yl pent-4-ynoate], the “VCaP Dmax (%)” value (VCaP cells; Table 36) is on record as “++ (26% ≤ Dmax ≤ 50%)”. For the same molecule, the half-maximal degradation concentration (DC50) under setting [2] was above 501 nM.
For the molecule `Cc1ncoc1C12CC(CNC(=O)[C@@H]3C[C@@H](O)CN3C(=O)C(NC(=O)COCCCOCCCOc3ccc(N4C(=O)N(c5ccc(C#N)c(C(F)(F)F)c5)C(=O)C4(C)C)cc3)C(C)(C)C)(C1)C2` (stereo partly drawn) [Example 633, (2S,4)R-1-((S)-2-(2-(3-((5-(4-(3-(4-cyano-3-(trifluoromethyl)phenyl)-5,5-dimethyl-4-oxo-2-thioxoimidazolidin-1-yl)phenoxy)pentyl)oxy)propoxy)acetamido)-3,3-dimethylbutanoyl)-4-hydroxy-N-((3-(4-methyloxazol-5-yl)bicyclo[1,.1.1]pentan-1-yl)methyl)pyrrolidine-2-carboxamide], the Dmax (VCaP, read-out: VCaP Dmax (%)) is below 25%. The DC50 under setting [1] is above 501 nM.
With `Cc1ncsc1-c1ccc([C@H](C)NC(=O)[C@@H]2C[C@@H](O)CN2C(=O)[C@@H](NC(=O)CO[C@H](C)CN2CCN(c3ccc(C(=O)N[C@H]4C(C)(C)[C@H](Oc5ccc(C#N)c(Cl)c5)C4(C)C)cc3)CC2)C(C)(C)C)cc1` [Example 634, (2S,4R)-1-((S)-2-(2-(((R)-1-(4-(4-(((1r,3R)-3-(3-chloro-4-cyanophenoxy)-2,2,4,4-tetramethylcyclobutyl)carbamoyl)phenyl)piper-azin-1-yl)propan-2-yl)oxy)acetamido)-3,3-dimethylbutanoyl)-4-hydroxy-N-((S)-1-(4-(4-methylthiazol-5-yl)phenyl)ethyl)pyrrolidine-2-carboxamide], under setting [2], the 50% degradation concentration (DC50) is below 50 nM. For the same molecule, the Dmax under setting [3] was above 71%.
For the molecule `Cc1ncsc1-c1ccc([C@H](C)NC(=O)[C@@H]2C[C@@H](O)CN2C(=O)[C@@H](NC(=O)COCCCOCCCCCOc2ccc(C(=O)N[C@H]3C(C)(C)[C@H](Oc4ccc(C#N)c(Cl)c4)C3(C)C)cc2)C(C)(C)C)cc1` [Example 635, (2S,4R)-1-((S)-2-(2-(3-((5-(4-(((1r,3r)-3-(3-chloro-4-cyanophenoxy)-2,2,4,4-tetramethylcyclobutyl)carbamoyl)phenoxy)pen-tyl)oxy)propoxy)aceta-mido)-3,3-dimethylbutanoyl)-4-hydroxy-N-((S)-1-(4-(4-methylthiazol-5-yl)phenyl)ethyl)pyrrolidine-2-carboxamide], under setting [2], the DC50 is below 50 nM. In addition, under setting [4], the Dmax lay in the range of 51 to 70%.
For `Cc1ncsc1-c1ccc([C@H](C)NC(=O)[C@@H]2C[C@@H](O)CN2C(=O)[C@@H](NC(=O)COCCN2C[C@H]3C[C@@H]2CN3c2ccc(C(=O)N[C@H]3C(C)(C)[C@H](Oc4ccc(C#N)c(Cl)c4)C3(C)C)cn2)C(C)(C)C)cc1` [Example 636, N-((1r,3R)-3-(3-chloro-4-cyanophenoxy)-2,2,4,4-tetramethylcyclobutyl)-6-((1R,4R)-5-(2-(2-(((S)-1-((2S,4R)-4-hydroxy-2-(((S)-1-(4-(4-methylthiazol-5-yl)phenyl)ethyl)carbam-oyl)pyrrolidin-1-yl)-3,3-dimethyl-1-oxobutan-2-yl)amino)-2-oxoethoxy)ethyl)-2,5-diazabicyclo[2.2.1]hept-an-2-yl)nicotinamide], the Dmax (VCaP, read-out: VCaP Dmax (%)) is above 71%. In addition, under setting [1], the DC50 was below 50 nM.
Turning to `Cc1ncsc1-c1ccc([C@H](C)NC(=O)[C@@H]2C[C@@H](O)CN2C(=O)[C@@H](NC(=O)COCCN2C[C@@H]3C[C@H]2CN3c2ccc(C(=O)N[C@H]3C(C)(C)[C@H](Oc4ccc(C#N)c(Cl)c4)C3(C)C)cn2)C(C)(C)C)cc1` [Example 637, N-((1r,3S)-3-(3-chloro-4-cyanophenoxy)-2,2,4,4-tetramethylcyclobutyl)-6-((1S,4S)-5-(2-(2-(((S)-1-((2S,4R)-4-hydroxy-2-(((S)-1-(4-(4-methylthiazol-5-yl)phenyl)ethyl)carbam-oyl)pyrrolidin-1-yl)-3,3-dimethyl-1-oxobutan-2-yl)amino)-2-oxoethoxy)ethyl)-2,5-diazabicyclo[2.2.1]hept-an-2-yl)nicotinamide], the Dmax (VCaP, read-out: VCaP Dmax (%)) is above 71%. For the same molecule, the DC50 under setting [1] is below 50 nM.
Regarding `Cc1ncsc1-c1ccc(CNC(=O)[C@@H]2C[C@@H](O)CN2C(=O)[C@@H](NC(=O)COCCN2CCN(c3ccc(C(=O)N[C@H]4C(C)(C)[C@H](Oc5ccc(C#N)c(Cl)c5)C4(C)C)cn3)CC2)C(C)(C)C)cc1` [Example 638], the DC50 under setting [2] was below 50 nM. In addition, the Dmax under setting [3] was above 71%.
Take `Cc1ncsc1-c1ccc([C@H](C)NC(=O)[C@@H]2C[C@@H](O)CN2C(=O)[C@@H](NC(=O)CO[C@@H](C)CN2CCN(c3ccc(C(=O)N[C@H]4C(C)(C)[C@H](Oc5ccc(C#N)c(Cl)c5)C4(C)C)cc3)CC2)C(C)(C)C)cc1` [Example 639, (1S,4R)-1-((S)-2-(2-(((S)-1-(4-(4-(((1r,3S)-3-(3-chloro-4-cyanophenoxy)-2,2,4,4-tetramethylcyclobutyl)carbamoyl)phenyl)piper-azin-1-yl)propan-2-yl)oxy)acetamido)-3,3-dimethylbutanoyl)-4-hydroxy-N-((S)-1-(4-(4-methylthiazol-5-yl)phenyl)ethyl)pyrrolidine-2-carboxamide]: the DC50 under setting [2] is below 50 nM. Under setting [3], the Dmax is above 71%.
As for `Cc1ncsc1-c1ccc(CNC(=O)[C@@H]2C[C@@H](O)CN2C(=O)[C@@H](NC(=O)CN2CCC(OCCOc3ccc(C(=O)N[C@H]4C(C)(C)[C@H](Oc5ccc(C#N)c(C(F)(F)F)c5)C4(C)C)cc3)CC2)C(C)(C)C)cc1` [Example 640, (2S,4R)-1-((S)-2-(2-(4-(2-(4-(((1r,3r)-3-(4-cyano-3-(trifluorometh-yl)phenoxy)-2,2,4,4-tetramethylcyclobutyl)carbamoyl)phenoxy)eth-oxy)piperidin-1-yl)acetamido)-3,3-dimethylbutanoyl)-4-hydroxy-N-(4-(4-methylthiazol-5-yl)benzyl)pyrrolidine-2-carboxamide], under setting [2], the DC50 was below 50 nM. The Dmax under setting [4] was above 71%.
Turning to `Cc1ncsc1-c1ccc([C@H](C)NC(=O)[C@@H]2C[C@@H](O)CN2C(=O)[C@@H](NC(=O)COCCCCOc2ccc(C(=O)N[C@H]3C(C)(C)[C@H](Oc4ccc(C#N)c(C(F)(F)F)c4)C3(C)C)cc2)C(C)(C)C)cc1` [Example 641, (2S,4R)-1-((S)-2-(2-(4-(4-(((1r,3r)-3-(4-cyano-3-(trifluorometh-yl)phenoxy)-2,2,4,4-tetramethylcyclobutyl)carbamoyl)phenoxy)butoxy)acetamido)-3,3-dimethylbutanoyl)-4-hydroxy-N-((S)-1-(4-(4-methylthiazol-5-yl)phenyl)ethyl)pyrrolidine-2-carboxamide], the DC50 under setting [2] was below 50 nM. Also, the maximal degradation (Dmax) under setting [4] is above 71%.
Take `Cc1ncsc1-c1ccc([C@H](C)NC(=O)C2C[C@@H](O)CN2C(=O)[C@@H](NC(=O)COCCC2(CCNc3ccc(C(=O)N[C@H]4C(C)(C)[C@H](Oc5ccc(C#N)c(Cl)c5)C4(C)C)cc3)COC2)C(C)(C)C)cc1` (stereo partly drawn) [Example 642]: the DC50 under setting [2] is below 50 nM. The Dmax under setting [3] was above 71%.
